In brackets after ≈: the same amount, converted by molar mass.
Columns and labels:
[1] = target: Cyclin-dependent kinase 7 (Homo sapiens, UniProt P50613); experiment: Binding affinity to T7-phage-tagged CDK7 by PCR analysis
[2] = target: Serine/threonine-protein kinase DCLK3 (Homo sapiens, UniProt Q9C098); experiment: Binding affinity to T7-phage-tagged DCAMKL3 by PCR analysis
[3] = target: Serine/threonine-protein kinase RIO2 (Homo sapiens, UniProt Q9BVS4); experiment: Binding affinity to T7-phage-tagged RIOK2 by PCR analysis
[4] = target: Mitogen-activated protein kinase 7 (Homo sapiens, UniProt Q13164); experiment: Binding affinity to T7-phage-tagged MAPK7 by PCR analysis
[5] = target: Myosin light chain kinase family member 4 (Homo sapiens, UniProt Q86YV6); experiment: Binding affinity to T7-phage-tagged SgK085 by PCR analysis
Myosin light chain kinase family member 4, sequence (Q86YV6 whole entry): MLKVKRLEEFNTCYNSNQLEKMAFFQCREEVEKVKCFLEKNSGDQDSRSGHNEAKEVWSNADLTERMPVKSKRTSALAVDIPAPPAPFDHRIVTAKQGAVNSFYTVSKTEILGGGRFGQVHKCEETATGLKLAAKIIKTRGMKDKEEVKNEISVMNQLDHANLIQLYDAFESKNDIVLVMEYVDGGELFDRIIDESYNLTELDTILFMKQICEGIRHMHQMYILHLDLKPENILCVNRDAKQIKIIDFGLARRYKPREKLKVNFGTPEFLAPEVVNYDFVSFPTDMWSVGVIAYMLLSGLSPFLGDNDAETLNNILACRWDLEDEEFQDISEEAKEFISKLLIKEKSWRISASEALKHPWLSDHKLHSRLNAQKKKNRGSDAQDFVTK

[6] = target: Dual specificity mitogen-activated protein kinase kinase 4 (Homo sapiens, UniProt P45985); experiment: Binding affinity to T7-phage-tagged MAP2K4 by PCR analysis
[7] = target: Death-associated protein kinase 2 (Homo sapiens, UniProt Q9UIK4); experiment: Binding affinity to T7-phage-tagged DAPK2 by PCR analysis
[8] = target: Mitogen-activated protein kinase 15 (Homo sapiens, UniProt Q8TD08); experiment: Binding affinity to T7-phage-tagged MAPK15 by PCR analysis
[9] = target: Death-associated protein kinase 3 (Homo sapiens, UniProt O43293); experiment: Binding affinity to T7-phage-tagged DAPK3 by PCR analysis
Death-associated protein kinase 3, sequence (O43293 whole entry): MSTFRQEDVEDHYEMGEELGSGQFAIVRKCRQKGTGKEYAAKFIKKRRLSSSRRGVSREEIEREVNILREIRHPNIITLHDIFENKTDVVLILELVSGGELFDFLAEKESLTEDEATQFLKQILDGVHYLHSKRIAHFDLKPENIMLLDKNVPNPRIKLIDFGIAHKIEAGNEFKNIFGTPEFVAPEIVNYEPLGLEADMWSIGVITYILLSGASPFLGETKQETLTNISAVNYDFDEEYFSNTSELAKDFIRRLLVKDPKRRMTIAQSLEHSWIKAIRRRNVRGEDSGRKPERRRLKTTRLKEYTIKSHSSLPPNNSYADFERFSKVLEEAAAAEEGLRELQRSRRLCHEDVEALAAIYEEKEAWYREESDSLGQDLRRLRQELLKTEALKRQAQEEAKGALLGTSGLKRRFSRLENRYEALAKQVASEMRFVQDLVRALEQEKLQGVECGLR

[10] = target: Interleukin-1 receptor-associated kinase 1 (Homo sapiens, UniProt P51617); experiment: Binding affinity to T7-phage-tagged IRAK1 by PCR analysis
Interleukin-1 receptor-associated kinase 1, sequence (P51617 whole entry): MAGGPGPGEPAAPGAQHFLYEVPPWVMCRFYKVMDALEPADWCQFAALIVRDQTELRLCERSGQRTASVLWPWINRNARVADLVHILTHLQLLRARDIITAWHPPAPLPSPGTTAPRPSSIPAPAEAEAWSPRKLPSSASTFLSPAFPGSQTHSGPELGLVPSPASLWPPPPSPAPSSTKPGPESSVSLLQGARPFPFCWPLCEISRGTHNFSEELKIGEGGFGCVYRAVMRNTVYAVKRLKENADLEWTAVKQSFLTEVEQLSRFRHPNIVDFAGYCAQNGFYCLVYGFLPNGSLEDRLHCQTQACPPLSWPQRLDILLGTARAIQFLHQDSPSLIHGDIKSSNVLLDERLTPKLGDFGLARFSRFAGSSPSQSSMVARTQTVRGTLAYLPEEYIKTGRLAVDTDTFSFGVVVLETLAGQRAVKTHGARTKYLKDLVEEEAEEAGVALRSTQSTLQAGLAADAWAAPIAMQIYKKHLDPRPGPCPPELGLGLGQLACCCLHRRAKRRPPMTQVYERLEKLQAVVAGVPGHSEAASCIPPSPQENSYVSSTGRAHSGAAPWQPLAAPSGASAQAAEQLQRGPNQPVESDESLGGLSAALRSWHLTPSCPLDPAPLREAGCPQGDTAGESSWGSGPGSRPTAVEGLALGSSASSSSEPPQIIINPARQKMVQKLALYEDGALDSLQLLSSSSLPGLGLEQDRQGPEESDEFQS

[11] = target: Mitogen-activated protein kinase 13 (Homo sapiens, UniProt O15264); experiment: Binding affinity to T7-phage-tagged P38delta by PCR analysis
Mitogen-activated protein kinase 13, sequence (O15264 whole entry): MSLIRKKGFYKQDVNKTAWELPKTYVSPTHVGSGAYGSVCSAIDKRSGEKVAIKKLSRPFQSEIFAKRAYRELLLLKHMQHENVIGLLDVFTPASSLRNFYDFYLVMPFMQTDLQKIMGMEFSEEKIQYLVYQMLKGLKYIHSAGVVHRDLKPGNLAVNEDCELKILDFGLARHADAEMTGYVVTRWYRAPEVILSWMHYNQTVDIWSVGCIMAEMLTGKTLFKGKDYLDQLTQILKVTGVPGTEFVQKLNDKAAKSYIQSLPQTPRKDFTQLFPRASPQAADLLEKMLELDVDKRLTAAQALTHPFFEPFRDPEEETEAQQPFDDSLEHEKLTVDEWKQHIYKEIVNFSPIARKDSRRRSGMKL

[12] = target: Death-associated protein kinase 1 (Homo sapiens, UniProt P53355); experiment: Binding affinity to T7-phage-tagged DAPK1 by PCR analysis
Death-associated protein kinase 1, sequence (P53355 whole entry): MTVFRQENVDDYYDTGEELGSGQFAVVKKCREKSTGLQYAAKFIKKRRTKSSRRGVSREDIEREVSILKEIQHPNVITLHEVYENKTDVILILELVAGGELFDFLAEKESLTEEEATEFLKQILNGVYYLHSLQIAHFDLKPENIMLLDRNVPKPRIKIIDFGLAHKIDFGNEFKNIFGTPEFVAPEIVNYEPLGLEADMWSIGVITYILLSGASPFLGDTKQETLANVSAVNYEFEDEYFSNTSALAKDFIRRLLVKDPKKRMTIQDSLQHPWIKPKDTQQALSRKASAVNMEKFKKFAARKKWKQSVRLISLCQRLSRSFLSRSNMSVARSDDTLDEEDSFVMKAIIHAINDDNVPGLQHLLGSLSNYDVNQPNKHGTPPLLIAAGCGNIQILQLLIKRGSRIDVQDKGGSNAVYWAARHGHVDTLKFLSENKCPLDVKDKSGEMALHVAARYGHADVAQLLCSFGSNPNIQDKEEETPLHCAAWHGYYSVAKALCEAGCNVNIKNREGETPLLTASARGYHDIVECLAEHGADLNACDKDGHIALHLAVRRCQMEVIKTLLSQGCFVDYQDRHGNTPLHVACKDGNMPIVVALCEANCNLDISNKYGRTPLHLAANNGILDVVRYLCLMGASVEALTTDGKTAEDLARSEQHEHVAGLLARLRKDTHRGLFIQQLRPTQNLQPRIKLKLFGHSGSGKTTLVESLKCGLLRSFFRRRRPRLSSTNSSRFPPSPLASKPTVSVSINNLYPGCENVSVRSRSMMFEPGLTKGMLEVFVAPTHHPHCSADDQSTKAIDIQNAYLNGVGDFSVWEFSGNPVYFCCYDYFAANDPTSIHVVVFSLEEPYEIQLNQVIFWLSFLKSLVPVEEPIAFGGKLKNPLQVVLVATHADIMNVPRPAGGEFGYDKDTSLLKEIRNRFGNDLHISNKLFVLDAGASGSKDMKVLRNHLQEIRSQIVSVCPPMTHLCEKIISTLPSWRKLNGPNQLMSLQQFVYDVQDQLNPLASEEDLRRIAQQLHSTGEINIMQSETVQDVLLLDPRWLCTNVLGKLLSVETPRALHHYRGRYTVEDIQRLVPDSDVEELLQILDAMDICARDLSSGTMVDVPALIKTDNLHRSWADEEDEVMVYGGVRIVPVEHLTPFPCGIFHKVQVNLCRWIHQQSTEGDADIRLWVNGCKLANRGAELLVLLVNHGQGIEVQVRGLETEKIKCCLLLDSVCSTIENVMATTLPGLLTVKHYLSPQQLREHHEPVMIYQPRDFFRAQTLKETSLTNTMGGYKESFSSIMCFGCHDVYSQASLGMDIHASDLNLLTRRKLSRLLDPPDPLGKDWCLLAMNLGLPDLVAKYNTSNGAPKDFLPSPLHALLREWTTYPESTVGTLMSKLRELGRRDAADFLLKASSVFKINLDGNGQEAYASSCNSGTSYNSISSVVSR

[13] = target: Serine/threonine-protein kinase 17A (Homo sapiens, UniProt Q9UEE5); experiment: Binding affinity to T7-phage-tagged STK17A by PCR analysis
[14] = target: Mitogen-activated protein kinase 12 (Homo sapiens, UniProt P53778); experiment: Binding affinity to T7-phage-tagged P38gamma by PCR analysis
Mitogen-activated protein kinase 12, sequence (P53778 whole entry): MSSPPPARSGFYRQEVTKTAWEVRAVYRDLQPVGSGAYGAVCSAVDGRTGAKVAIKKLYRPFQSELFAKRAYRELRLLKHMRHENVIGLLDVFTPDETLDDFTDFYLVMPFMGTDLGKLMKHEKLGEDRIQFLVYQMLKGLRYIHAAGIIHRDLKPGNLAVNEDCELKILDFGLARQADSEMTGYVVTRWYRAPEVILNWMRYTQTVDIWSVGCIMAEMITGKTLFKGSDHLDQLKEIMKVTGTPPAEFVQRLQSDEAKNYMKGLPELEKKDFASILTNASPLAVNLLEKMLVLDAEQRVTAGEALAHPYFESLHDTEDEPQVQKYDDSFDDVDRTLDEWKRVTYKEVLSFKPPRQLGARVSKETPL

[15] = target: Inhibitor of nuclear factor kappa-B kinase subunit beta (Homo sapiens, UniProt O14920); experiment: Binding affinity to T7-phage-tagged IKKbeta by PCR analysis
[16] = target: T1, Mitogen-activated protein kinase 9 (Homo sapiens, UniProt P45984); experiment: Binding affinity to T7-phage-tagged JNK2 by PCR analysis
T1 sequence (P45984 whole entry): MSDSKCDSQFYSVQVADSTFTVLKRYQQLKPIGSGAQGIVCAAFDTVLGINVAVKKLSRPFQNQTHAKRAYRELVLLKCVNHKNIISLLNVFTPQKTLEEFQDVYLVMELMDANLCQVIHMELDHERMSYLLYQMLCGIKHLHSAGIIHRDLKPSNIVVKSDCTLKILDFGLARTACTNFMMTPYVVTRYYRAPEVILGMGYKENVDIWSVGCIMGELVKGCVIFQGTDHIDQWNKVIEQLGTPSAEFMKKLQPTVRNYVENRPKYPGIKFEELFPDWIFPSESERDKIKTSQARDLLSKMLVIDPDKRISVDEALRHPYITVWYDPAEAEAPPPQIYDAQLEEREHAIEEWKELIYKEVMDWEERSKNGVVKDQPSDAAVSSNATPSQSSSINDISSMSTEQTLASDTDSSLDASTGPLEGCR

[17] = target: T2, Mitogen-activated protein kinase 8 (Homo sapiens, UniProt P45983); experiment: Binding affinity to T7-phage-tagged JNK1 by PCR analysis
T2 sequence (P45983 whole entry): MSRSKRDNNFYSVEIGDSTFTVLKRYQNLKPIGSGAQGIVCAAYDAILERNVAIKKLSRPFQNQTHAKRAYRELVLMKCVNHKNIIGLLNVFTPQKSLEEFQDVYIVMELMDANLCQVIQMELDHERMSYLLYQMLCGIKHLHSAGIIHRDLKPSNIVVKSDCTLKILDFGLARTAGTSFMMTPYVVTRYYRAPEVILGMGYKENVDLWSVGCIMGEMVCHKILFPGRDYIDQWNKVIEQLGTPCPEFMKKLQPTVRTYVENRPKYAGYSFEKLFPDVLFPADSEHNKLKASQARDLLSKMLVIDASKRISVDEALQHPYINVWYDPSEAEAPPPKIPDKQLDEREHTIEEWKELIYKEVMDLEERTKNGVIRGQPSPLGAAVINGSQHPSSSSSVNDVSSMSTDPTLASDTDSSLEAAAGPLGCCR

[18] = Oral bioavailability in dog at 3 mg/kg administered using hydroxypropyl methylcellulose as vehicle; type: ADME, organism-based, Canis lupus familiaris; conditions: in vivo
[19] = […] bioavailability in ip dosed rat; type: ADME, organism-based; conditions: in vivo, intraperitoneal
[20] = Clearance in dog at 3 mg/kg, iv; type: ADME, organism-based, Canis lupus familiaris; design: dose 3 mg/kg, route intravenous; conditions: in vivo
[21] = Half life in dog at 3 mg/kg, iv; type: ADME, organism-based, Canis lupus familiaris; design: dose 3 mg/kg, route intravenous; conditions: in vivo
[22] = Oral bioavailability in rat at 3 mg/kg administered using labrasol as vehicle; type: ADME, organism-based; conditions: in vivo
[23] = Half life in rat at 3 mg/kg, iv; type: ADME, organism-based; design: dose 3 mg/kg, route intravenous; conditions: in vivo
[24] = Oral bioavailability in rat at 3 mg/kg administered using hydroxypropyl methylcellulose as vehicle; type: ADME, organism-based; conditions: in vivo
[25] = Clearance in rat at 3 mg/kg, iv; type: ADME, organism-based; design: dose 3 mg/kg, route intravenous; conditions: in vivo
Caco-2 = experiment: Efflux ratio of permeability from apical to basal to basal to apical side of human Caco2 cells; type: ADME, cell-based
[26] = Solubility of the compound in phosphate buffer at pH 6.4; type: physicochemical
[27] = target: c-Jun N-terminal kinase, JNK (Homo sapiens, UniProt P45983+P53779+P45984); experiment: Inhibition of JNK in human SW1353 assessed as inhibition of TNFalpha-inuced c-Jun phosphorylation incubated for 30 mins prior to TNFalpha-induction measured after 20 mins by immunostaining method
[28] = target: T1, Mitogen-activated protein kinase 9; experiment: Inhibition of human JNK2 alpha2 using GST-tagged ATF2 as substrate and [gamma33P]ATP incubated for 10 mins prior to substrate addition measured after 30 mins by scintillation counting
Rattus norvegicus [29] = experiment: Antiasthatic activity in ovalbumin-sensitized Brown Norway rat assessed as inhibition of ovalbumin-induced total white blood cells infiltration into BAL at 10 mg/kg, sc administered 24 hrs prior to ovalbumin-challenge measured after 4 hrs relative to vehicle-treated control; type: functional; conditions: route subcutaneous
Rattus norvegicus [30] = experiment: Antiasthatic activity in ovalbumin-sensitized Brown Norway rat assessed as inhibition of ovalbumin-induced neutrophil infiltration into BAL at 10 mg/kg, sc administered 24 hrs prior to ovalbumin-challenge measured after 4 hrs relative to vehicle-treated control; type: functional; conditions: route subcutaneous
[31] = target: Ribosomal protein S6 kinase alpha-1 (Homo sapiens, UniProt Q15418); experiment: Binding affinity to T7-phage-tagged RPS6KA1 by PCR analysis
[32] = target: T2, Mitogen-activated protein kinase 8; experiment: Inhibition of human JNK1 alpha1 using GST-tagged ATF2 as substrate and [gamma33P]ATP incubated for 10 mins prior to substrate addition measured after 30 mins by scintillation counting

Cyclin-dependent kinase 7, sequence (P50613 whole entry): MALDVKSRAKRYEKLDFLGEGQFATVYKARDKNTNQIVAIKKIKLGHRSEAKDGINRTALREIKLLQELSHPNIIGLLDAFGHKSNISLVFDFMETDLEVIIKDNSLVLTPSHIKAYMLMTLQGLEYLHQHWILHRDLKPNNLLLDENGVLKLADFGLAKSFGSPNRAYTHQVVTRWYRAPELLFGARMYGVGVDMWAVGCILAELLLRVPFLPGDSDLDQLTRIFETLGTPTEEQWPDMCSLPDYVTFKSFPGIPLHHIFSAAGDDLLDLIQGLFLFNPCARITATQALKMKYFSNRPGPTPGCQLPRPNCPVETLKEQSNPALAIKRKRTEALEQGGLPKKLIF

COC(=O)c1c(Cc2ccc(C(=O)NCCO)cc2)c(=O)c2ccc(Cl)cc2n1-c1ccccc1
Kd [1]: > 10 µM
Kd [2]: > 10 µM
Kd [3]: > 10 µM
Kd [4]: > 10 µM
Kd [5]: > 10 µM
Kd [6]: > 10 µM
Kd [7]: > 10 µM
Kd [8]: > 10 µM
Kd [9]: > 10 µM
Kd [10]: > 10 µM
Kd [11]: > 10 µM
Kd [12]: > 10 µM
Kd [13]: > 10 µM
Kd [14]: > 10 µM
Kd [15]: > 10 µM
Kd [16]: 170 nM
Kd [17]: 62 nM
bioavailability [18]: 40%
bioavailability [19]: 100%
clearance [20]: 3.4 mL/min/kg
half-life [21]: 150 min
bioavailability [22]: 43%
half-life [23]: 60 min
bioavailability [24]: 6%
clearance [25]: 25 mL/min/kg
Ratio (Caco-2): 7
solubility [26]: 8.5 µg/mL (≈ 17.3 µM)
IC50 [27]: 3 µM
IC50 [28]: 170 nM
inhibition in vivo at 10 mg/kg (Rattus norvegicus [29]): 40%
inhibition in vivo at 10 mg/kg (Rattus norvegicus [30]): 55%
Kd [31]: > 10 µM
IC50 [32]: 62 nM

COC(=O)c1c(Cc2ccc(S(C)(=O)=O)cc2)c(=O)c2ccc(C(F)(F)F)nc2n1-c1ccccc1
IC50 [27]: 2.7 µM
IC50 [28]: 220 nM
IC50 [32]: 82 nM

COC(=O)c1c(Cc2ccc(C(=O)NCCO)cc2)c(=O)c2ccc(C(F)(F)F)nc2n1-c1ccccc1
IC50 [27]: 4.3 µM
IC50 [28]: 176 nM
IC50 [32]: 80 nM

COC(=O)c1c(CN2CCN(S(C)(=O)=O)CC2)c(=O)c2ccc(F)cc2n1-c1ccccc1
IC50 [28]: 507 nM
IC50 [32]: 65 nM

COC(=O)c1c(CN2CCC(S(C)(=O)=O)CC2)c(=O)c2ccc(F)cc2n1-c1ccccc1
Ratio (Caco-2): 2
solubility [26]: 34 µg/mL (≈ 72 µM)
IC50 [27]: 0.83 µM
IC50 [28]: 140 nM
IC50 [32]: 23 nM

COC(=O)c1c(CN2CCOCC2)c(=O)c2ccc(F)cc2n1-c1ccccc1
IC50 [28]: 900 nM
IC50 [32]: 114 nM

COC(=O)c1c(CN2CC[C@@H](S(C)(=O)=O)C2)c(=O)c2ccc(F)cc2n1-c1ccccc1
IC50 [28]: 1310 nM
IC50 [32]: 130 nM

COC(=O)c1c(CN2CC[C@H](S(C)(=O)=O)C2)c(=O)c2ccc(F)cc2n1-c1ccccc1
IC50 [28]: 535 nM
IC50 [32]: 53 nM

COC(=O)c1c(CN2CCC(S(C)(=O)=O)CC2)c(=O)c2ccc(C)nc2n1-c1ccccc1
IC50 [27]: 0.43 µM
IC50 [28]: 190 nM

COC(=O)c1c(CN2CCC(S(C)(=O)=O)CC2)c(=O)c2ccc(C(F)(F)F)nc2n1-c1ccccc1
IC50 [27]: 4.3 µM
IC50 [28]: 290 nM

CCn1c(=O)c2ccccc2n(-c2ccccc2)c1=O
IC50 [28]: > 20000 nM
IC50 [32]: 11000 nM

O=c1c2ccccc2n(-c2ccccc2)c(=O)n1Cc1ccccc1
IC50 [28]: 9300 nM
IC50 [32]: 2800 nM

O=c1c2ccc(Cl)cc2n(-c2ccccc2)c(=O)n1Cc1ccccc1
IC50 [28]: 3800 nM
IC50 [32]: 2300 nM

COC(=O)c1c(Cc2ccccc2)c(=O)c2ccc(Cl)cc2n1-c1ccccc1
IC50 [28]: 960 nM
IC50 [32]: 370 nM

CNS(=O)(=O)c1ccc(Cc2c(C(=O)OC)n(-c3ccccc3)c3cc(Cl)ccc3c2=O)cc1
IC50 [32]: 47 nM

CCNC(=O)c1ccc(Cc2c(C(=O)OC)n(-c3ccccc3)c3cc(Cl)ccc3c2=O)cc1
IC50 [28]: 94 nM
IC50 [32]: 38 nM

COC(=O)c1c(Cc2ccc(S(=O)(=O)N3CCNCC3)cc2)c(=O)c2ccc(Cl)cc2n1-c1ccccc1
Ratio (Caco-2): 2
solubility [26]: 23 µg/mL (≈ 41.7 µM)
IC50 [27]: 1 µM
IC50 [28]: 50 nM
IC50 [32]: 30 nM

COC(=O)c1c(Cc2ccc(S(=O)(=O)N3CCNCC3)cc2)c(=O)c2ccc(F)cc2n1-c1ccccc1
solubility [26]: 37 µg/mL (≈ 69.1 µM)
IC50 [27]: 1.7 µM
IC50 [28]: 70 nM
IC50 [32]: 30 nM

COC(=O)c1c(Cc2ccc(S(=O)(=O)CCO)cc2)c(=O)c2ccc(F)cc2n1-c1ccccc1
IC50 [27]: 2.5 µM
IC50 [28]: 219 nM
IC50 [32]: 58 nM

COC(=O)c1c(Cc2ccc(C(=O)NCCO)cc2)c(=O)c2ccc(C)nc2n1-c1ccccc1
Ratio (Caco-2): 15
solubility [26]: 78 µg/mL (≈ 165 µM)
IC50 [27]: 4.2 µM
IC50 [28]: 64 nM
IC50 [32]: 30 nM

COC(=O)c1c(Cc2ccc(S(=O)(=O)N3CCNCC3)cc2)c(=O)c2ccc(C)nc2n1-c1ccccc1
IC50 [27]: 0.56 µM
IC50 [28]: 28 nM
IC50 [32]: 18 nM

CCNC(=O)c1ccc(Cc2c(C(=O)OC)n(-c3ccccc3)c3nc(C)ccc3c2=O)cc1
IC50 [27]: 4.7 µM
IC50 [28]: 87 nM
IC50 [32]: 45 nM

COC(=O)c1c(Cc2ccc(S(C)(=O)=O)cc2)c(=O)c2ccc(C)nc2n1-c1cccc(N)c1
IC50 [27]: 0.86 µM
IC50 [28]: 32 nM
IC50 [32]: 14 nM

— ChEMBL document CHEMBL2203077, “Discovery of a novel series of 4-quinolone JNK inhibitors” (Bioorg Med Chem Lett, 2012)
